{"source": "patent US12410448B2", "about": "“Nanoparticle compositions containing sugar functionalized nucleic acid carriers” (TIBA Biotech LLC, priority 2021, dated 2025)", "key": {"[1]": {"test": "Hydrodynamic size measurement by dynamic light scattering (DLS)", "assay_type": "physicochemical", "conditions": "nanoparticle composition with SEAP mRNA"}, "[2]": {"test_system": "SARS-CoV-2 Spike protein", "test": "COVID-19 Spike trimer direct serum ELISA after vaccination", "assay_type": "in vivo"}, "[3]": {"test": "Encapsulation efficiency by Ribogreen assay", "assay_type": "physicochemical", "conditions": "nanoparticle composition with SEAP mRNA, formulated at pH 5; dendron:DOPE:cholesterol:DMG-PEG2k 1:0.6:2.88:0.1", "description": "As used herein, “encapsulated” can refer to a nanoparticle that provides an active agent or therapeutic agent with full encapsulation, partial encapsulation, or both. In an embodiment, the therapeutic agent is a nucleic acid (as a non-limiting example, a messenger RNA), In a preferred embodiment, the nucleic acid is fully encapsulated in the nanoparticle. In the context of nucleic acid therapeutic agents, full encapsulation may be determined by a Ribogreen® assay. RiboGreen® is an ultra-sensitive fluorescent nucleic acid stain for quantitating oligonucleotides and single-stranded DNA or RNA in solution (available from Thermo Fisher Scientific-US).\nNanoparticles containing the deoxy sugar-modified polyesteramine dendron (e.g PE Dendron_G2-2 deoxyGlucose-A1-Ricinoleic):DOPE:cholesterol:DMG-PEG2k at molar ratios of 1:0.6:2.88:0.1 were formulated using NanoAssembir Benchtop (Precision NanoSystems Inc, Vancouver, BC, Canada)). RNA was diluted with DNase/RNase-Free, endotoxin free distilled water and sterile citrate buffer to a final desired pH. […] Encapsulation efficiency was measured to be 95% for the nanoparticle composition containing PE Dendron_G2-2 deoxyGlucose-A1-Ricinoleic and SEAP mRNA (formulated at pH 5) using Ribogreen® assay (Geall et al. 10.1073/pnas.1209367109 which is incorporated herein by reference as if fully set forth). […]"}, "[4]": {"test_system": "BHK cells", "test": "In vitro SEAP production", "assay_type": "cell-based", "procedure": "To test the ability of the nanoparticles formulated with different deoxy sugar based dendrons to express SEAP in vitro, BHK cells were treated with nanoparticles. Each well of a 12 well dish of BHKs was treated with 20 μL (approximately 1 μg) of each formulation product diluted into a final volume of 500 μL with a 1:1 Optimem:PBS mix. The nontreated wells had 500 μL of 50/50 PBS/OptiMEM. Twenty four hours post-treatment or transfection, conditioned media from each culture was collected. The amount of SEAP was quantified using the Invitrogen NovaBright™ Phospha-Light™ EXP Assay kits for SEAP detection according to the manufacturer's protocol. The amount of SEAP in the media samples are reported in Arbitrary Units (A.U.) as measured in a BioTek Synergy HTX microplate reader. Error bars are ±S.E.M. Referring to FIG. 4a, it was observed that the SEAP amount was higher with the PE Dendron_G2-2 deoxyGlucose-A1-Ricinoleic than the other regioisomers: PE Dendron_G2-1 deoxyGlucose-A1-Ricinoleic and PE Dendron_G2-6 deoxyGlucose-A1-Ricinoleic. […]"}, "[5]": {"test_system": "SEAP expression", "test": "In vivo SEAP production, deoxy sugar dendrons", "set-up": "species or system mice", "conditions": "FIG. 4 legend; SEAP mRNA nanoparticles", "procedure": "To test formulations of different monosaccharides based dendrons, the secreted embryonic alkaline phosphatase SEAP reporter system was used. For in vivo tests, mice were injected with nanoparticles at a dose of 5 ug of SEAP mRNA, and 16 hrs later, serum was collected from the mice. The amount of […] using the Invitrogen NovaBright™ Phospha-Light™ EXP Assay kits for SEAP detection according to the manufacturer's protocol. The amount of SEAP in the mouse serum samples are reported in Arbitrary Units (A.U.) as measured in a BioTek Synergy HTX microplate reader. Error bars are±S.E.M. Referring to FIG. 4b, it was observed that the SEAP amount was higher with the PE Dendron_G2-1 deoxyGlucose-A1-Ricinoleic than the other regioisomers: PE Dendron_G2-2 deoxyGlucose-A1-Ricinoleic and PE Dendron_G2-6 deoxyGlucose-A1-Ricinoleic. Referring to FIG. 5b, it was also observed that the SEAP amount was higher with the PE Dendron_G2-2 deoxyGlucose-A5-Ricinoleic than PE Dendron_G2-2 deoxyGlucose-A1-Ricinoleic indicating pKa of the ionizable delivery molecules influences the ability of the nanoparticles to deliver functionally active RNA."}}, "data": [{"smiles": "CCCCCC[C@H](O)C/C=C\\CCCCCCCC(=O)NCCCN(C)CCCNC(=O)OCC(C)(COC(=O)NCCCN(C)CCCNC(=O)CCCCCCC/C=C\\C[C@@H](O)CCCCCC)C(=O)OCC(C)(COC(=O)C(C)(COC(=O)NCCCN(C)CCCNC(=O)CCCCCCC/C=C\\C[C@@H](O)CCCCCC)COC(=O)NCCCN(C)CCCNC(=O)CCCCCCC/C=C\\C[C@@H](O)CCCCCC)C(=O)OCc1cn([C@H]2C(O)O[C@H](CO)[C@@H](O)[C@@H]2O)nn1", "note": "(some centres unmarked)", "values": [{"measurement": "Nanoparticle size at strongest intensity (Z average, DLS)", "setting": "[1]", "value": 113.3, "unit": "nm·days"}, {"measurement": "Polydispersity index of size distribution", "setting": "[1]; single peak", "value": "low"}, {"measurement": "Immunogenicity upon IM administration (anti-Spike IgG titer)", "setting": "[2]; compared with Dlin-MC3-DMA control", "value": "superior"}, {"measurement": "Endpoint dilution titer of serum anti-Spike IgG", "setting": "[2]; compared with PE Dendron_G2-2 deoxyGlucose-A5-Ricinoleic", "value": "higher"}, {"measurement": "Encapsulation efficiency", "setting": "[3]", "value": 95, "unit": "%"}, {"measurement": "SEAP amount in conditioned media", "setting": "[4]; FIG. 4a, BHK cells, 24 h, about 1 μg, compared with regioisomers 1 deoxyGlucose-A1 and 6 deoxyGlucose-A1", "value": "higher"}, {"measurement": "SEAP protein production in vitro", "setting": "[4]; FIG. 4 legend, SEAP mRNA nanoparticles", "value": "resulted in SEAP protein production"}, {"measurement": "SEAP protein production in vivo", "setting": "[5]", "value": "resulted in SEAP protein production"}]}]}
